# From ChEMBL document CHEMBL1201862, “PubChem BioAssay data set” (2004)
# The source made the active and inactive calls.
# Legend:
# [1] = tested on: Streptococcus; test: GAS UMAA2166 growth inhibition – luminescence, BacTiterGlo, counter-screen for streptokinase expression inhibitor project, dose response (AID 1915); type: functional, organism-based;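 also: potency for reduction of bacterial viability or growth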
# [2] = tested on: Vero; test: mammalian cell viability reduction – secondary assay, cytotoxicity control for West Nile virus antiviral project, dose response (AID 1650); type: functional; conditions: Chlorocebus sabaeus
# [3] = tested on: Streptococcus sp. 'group A'; test: Streptococcus pyogenes SK(-)GAS viability under kanamycin – luminescence, BacTiterGlo, confirmation, counter-screen for streptokinase expression inhibitor project, dose response (AID 1900); type: functional, organism-based
# [4] = target: T1, Streptokinase A (Streptococcus pyogenes serotype M1, UniProt P10520); test: viability-normalized secreted streptokinase activity reduction – plasminogen activation absorbance, OD405, dose response (AID 1914); type: functional, Streptococcus pyogenes M1 GAS;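 also: secreted streptokinase activity via plasminogen activation per viability signal from cell pellet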
# T1 sequence (P10520 whole entry): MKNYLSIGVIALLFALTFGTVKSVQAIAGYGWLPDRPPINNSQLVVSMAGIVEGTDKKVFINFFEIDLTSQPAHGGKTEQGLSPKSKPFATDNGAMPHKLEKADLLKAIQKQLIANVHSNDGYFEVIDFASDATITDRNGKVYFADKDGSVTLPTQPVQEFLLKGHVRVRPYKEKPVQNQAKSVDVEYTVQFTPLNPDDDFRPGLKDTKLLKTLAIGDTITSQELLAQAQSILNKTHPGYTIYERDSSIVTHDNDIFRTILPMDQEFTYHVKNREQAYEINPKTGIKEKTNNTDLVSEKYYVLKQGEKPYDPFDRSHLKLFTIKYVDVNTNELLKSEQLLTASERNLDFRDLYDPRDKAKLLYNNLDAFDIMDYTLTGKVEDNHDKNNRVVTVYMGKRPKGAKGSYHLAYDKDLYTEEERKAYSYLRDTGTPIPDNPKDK
# [5] = target: T2, Protein RecA (Mycobacterium tuberculosis, UniProt P9WHJ3); test: Fluorescence Cell-Free Homogeneous Dose Retest to Identify Inhibitors of RecA-Intein Splicing Activity. [Related pubchem assays (depositor defined):AID2097, AID2223, AID489010, AID492950]; type: functional
# T2 sequence (P9WHJ3 whole entry): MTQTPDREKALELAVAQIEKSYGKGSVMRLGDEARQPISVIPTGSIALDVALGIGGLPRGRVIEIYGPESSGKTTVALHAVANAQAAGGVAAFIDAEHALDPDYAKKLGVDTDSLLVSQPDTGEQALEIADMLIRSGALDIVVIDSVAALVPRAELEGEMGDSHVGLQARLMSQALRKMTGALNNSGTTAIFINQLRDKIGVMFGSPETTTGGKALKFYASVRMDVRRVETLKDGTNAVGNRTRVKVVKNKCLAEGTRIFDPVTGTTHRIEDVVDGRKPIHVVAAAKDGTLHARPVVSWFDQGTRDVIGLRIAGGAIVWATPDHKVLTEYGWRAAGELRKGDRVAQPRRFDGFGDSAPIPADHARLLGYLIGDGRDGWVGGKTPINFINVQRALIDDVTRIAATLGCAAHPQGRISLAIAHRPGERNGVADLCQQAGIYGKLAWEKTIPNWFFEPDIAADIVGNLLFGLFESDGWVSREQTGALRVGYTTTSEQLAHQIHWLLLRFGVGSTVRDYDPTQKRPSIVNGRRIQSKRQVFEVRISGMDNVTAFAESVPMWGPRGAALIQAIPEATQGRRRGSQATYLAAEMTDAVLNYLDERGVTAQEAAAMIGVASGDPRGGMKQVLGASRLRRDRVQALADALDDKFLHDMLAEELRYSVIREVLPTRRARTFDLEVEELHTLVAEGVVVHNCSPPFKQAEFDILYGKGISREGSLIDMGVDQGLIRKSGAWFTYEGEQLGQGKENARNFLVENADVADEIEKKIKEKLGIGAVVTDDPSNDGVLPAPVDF
# [6] = target: Genome polyprotein (dengue virus type 2, UniProt P29990); test: flavivirus cap methylation enzyme inhibition – biochemical, confirmation dose response, primary screen (AID 588689); type: functional
# Chain of Genome polyprotein (P29990 2492-3391 limits assumed): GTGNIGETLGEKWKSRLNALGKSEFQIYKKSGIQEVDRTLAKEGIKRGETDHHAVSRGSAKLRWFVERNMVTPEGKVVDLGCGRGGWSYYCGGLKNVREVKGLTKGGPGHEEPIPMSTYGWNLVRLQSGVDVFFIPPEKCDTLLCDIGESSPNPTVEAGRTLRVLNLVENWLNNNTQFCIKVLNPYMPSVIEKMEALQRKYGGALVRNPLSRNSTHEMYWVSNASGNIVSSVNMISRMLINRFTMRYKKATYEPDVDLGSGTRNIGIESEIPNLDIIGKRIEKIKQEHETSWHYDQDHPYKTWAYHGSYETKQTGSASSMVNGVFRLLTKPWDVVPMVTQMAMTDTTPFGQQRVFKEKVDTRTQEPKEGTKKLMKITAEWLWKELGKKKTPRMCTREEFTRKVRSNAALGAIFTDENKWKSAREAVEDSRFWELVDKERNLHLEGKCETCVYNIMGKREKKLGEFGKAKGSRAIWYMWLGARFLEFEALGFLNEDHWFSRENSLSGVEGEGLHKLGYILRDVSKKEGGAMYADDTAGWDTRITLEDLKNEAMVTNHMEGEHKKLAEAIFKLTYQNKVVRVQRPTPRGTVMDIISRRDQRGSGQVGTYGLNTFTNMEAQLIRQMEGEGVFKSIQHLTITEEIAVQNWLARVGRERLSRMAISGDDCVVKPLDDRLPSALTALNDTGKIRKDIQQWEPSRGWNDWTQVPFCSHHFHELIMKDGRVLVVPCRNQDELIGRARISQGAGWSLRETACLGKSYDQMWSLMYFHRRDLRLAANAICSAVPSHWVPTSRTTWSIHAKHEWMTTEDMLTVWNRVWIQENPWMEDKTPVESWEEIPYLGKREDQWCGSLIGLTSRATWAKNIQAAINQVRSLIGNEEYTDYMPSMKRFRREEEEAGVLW
# [7] = target: T3, Bcl-2-related protein A1 (Mus musculus, UniProt Q07440); test: Bfl-1 binding inhibitors, SAR follow-up, biochemical, fluorescence polarization (AID 1070)
# T3 sequence (Q07440 whole entry): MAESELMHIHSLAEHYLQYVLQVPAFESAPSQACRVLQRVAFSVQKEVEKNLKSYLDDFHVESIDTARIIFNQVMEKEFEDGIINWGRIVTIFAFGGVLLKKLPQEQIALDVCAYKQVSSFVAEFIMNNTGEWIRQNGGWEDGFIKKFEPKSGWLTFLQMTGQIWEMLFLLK
# [8] = target: T4, Replicative DNA helicase DnaB (Mycobacterium tuberculosis, UniProt P9WMR3); test: DnaB intein splicing inhibitors, dose response, biochemical, cell-free fluorescence (AID 449749); type: functional
# T4 sequence (P9WMR3 whole entry): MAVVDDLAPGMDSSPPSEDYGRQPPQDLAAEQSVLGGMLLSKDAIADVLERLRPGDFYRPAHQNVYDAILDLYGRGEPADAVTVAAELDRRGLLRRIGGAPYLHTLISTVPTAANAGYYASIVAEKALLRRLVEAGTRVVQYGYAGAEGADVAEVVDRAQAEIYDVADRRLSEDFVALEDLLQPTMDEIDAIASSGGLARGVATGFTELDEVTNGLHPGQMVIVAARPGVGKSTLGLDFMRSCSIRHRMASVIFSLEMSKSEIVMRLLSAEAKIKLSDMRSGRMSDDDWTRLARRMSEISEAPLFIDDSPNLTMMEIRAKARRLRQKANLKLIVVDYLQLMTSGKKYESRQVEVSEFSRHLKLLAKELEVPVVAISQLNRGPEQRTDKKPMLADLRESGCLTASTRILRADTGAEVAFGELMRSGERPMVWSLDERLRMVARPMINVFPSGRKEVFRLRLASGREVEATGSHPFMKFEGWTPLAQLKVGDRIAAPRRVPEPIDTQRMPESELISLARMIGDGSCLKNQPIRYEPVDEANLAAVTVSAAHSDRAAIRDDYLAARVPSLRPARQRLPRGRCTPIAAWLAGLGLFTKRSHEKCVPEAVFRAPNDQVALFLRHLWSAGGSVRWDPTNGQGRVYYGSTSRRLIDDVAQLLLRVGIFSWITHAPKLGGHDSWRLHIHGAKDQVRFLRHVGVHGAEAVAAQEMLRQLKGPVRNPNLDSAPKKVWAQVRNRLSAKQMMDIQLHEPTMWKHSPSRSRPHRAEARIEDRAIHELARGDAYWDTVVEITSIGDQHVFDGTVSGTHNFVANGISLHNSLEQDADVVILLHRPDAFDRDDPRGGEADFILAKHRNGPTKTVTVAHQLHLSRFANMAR
# [9] = target: T3, Bcl-2-related protein A1; test: small-molecule antagonists of Bfl-1/BH3 interaction – biochemical, TR-FRET, mouse Bfl-1, confirmation (AID 621);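 also: TR-FRET binding of GST-Bfl-1 to FITC-labelled Bid peptide via terbium antibody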
# [10] = target: Glyceraldehyde-3-phosphate dehydrogenase (Homo sapiens, UniProt P04406)
# Chain of Glyceraldehyde-3-phosphate dehydrogenase (P04406 whole entry): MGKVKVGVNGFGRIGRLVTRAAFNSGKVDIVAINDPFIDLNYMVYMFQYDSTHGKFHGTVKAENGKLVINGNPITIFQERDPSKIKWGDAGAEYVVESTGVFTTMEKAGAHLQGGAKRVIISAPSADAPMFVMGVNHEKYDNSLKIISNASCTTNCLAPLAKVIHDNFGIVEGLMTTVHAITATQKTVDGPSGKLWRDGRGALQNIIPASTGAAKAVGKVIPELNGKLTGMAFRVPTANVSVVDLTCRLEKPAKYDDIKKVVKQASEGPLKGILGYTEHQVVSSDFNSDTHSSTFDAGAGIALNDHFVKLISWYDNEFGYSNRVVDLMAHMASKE
# [11] = target: T5, Methionyl-tRNA synthetase, putative (Trypanosoma brucei brucei, UniProt Q38C91); type: functional, Trypanosoma brucei brucei strain 927/4 GUTat10.1
# T5 sequence (Q38C91 whole entry): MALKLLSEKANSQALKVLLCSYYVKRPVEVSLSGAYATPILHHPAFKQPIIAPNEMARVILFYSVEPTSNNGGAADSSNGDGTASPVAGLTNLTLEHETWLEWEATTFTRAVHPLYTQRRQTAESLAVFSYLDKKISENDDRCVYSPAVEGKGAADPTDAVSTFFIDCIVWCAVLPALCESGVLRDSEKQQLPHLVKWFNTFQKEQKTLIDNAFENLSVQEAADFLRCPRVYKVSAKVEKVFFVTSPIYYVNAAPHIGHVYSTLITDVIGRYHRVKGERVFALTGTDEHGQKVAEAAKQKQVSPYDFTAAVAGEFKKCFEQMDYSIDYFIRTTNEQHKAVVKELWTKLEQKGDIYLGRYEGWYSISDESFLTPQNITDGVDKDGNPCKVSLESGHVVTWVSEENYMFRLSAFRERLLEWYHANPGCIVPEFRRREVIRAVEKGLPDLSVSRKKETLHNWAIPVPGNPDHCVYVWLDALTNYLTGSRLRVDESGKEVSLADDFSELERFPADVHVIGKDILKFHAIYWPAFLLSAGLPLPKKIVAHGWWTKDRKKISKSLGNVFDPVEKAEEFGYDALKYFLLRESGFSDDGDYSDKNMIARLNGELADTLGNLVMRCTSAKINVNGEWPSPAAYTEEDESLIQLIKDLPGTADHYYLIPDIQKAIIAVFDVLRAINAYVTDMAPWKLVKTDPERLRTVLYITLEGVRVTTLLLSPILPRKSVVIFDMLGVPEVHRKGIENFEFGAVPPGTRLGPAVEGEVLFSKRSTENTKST
# [12] = Counterscreen for inhibitors of Trypanosoma brucei methionyl tRNA synthetase (MetRS): Luminescence-based cell-based high throughput dose response assay to identify compounds that are cytotoxic to Jurkat human T lymphocyte cells.; type: functional
# [13] = Late stage counterscreen for inhibitors of Trypanosoma brucei methionyl tRNA synthetase (MetRS): Luminescence-based cell-based high throughput dose response assay to identify compounds that are cytotoxic to Jurkat human T lymphocyte cells.; type: functional
# [14] = target: T5, Methionyl-tRNA synthetase, putative; type: functional, Trypanosoma brucei brucei strain 927/4 GUTat10.1; remark: listed apart in the source
# [15] = target: Bifunctional protein GlmU (Mycobacterium tuberculosis, UniProt P9WMN3); test: Inhibitors of Mycobacterial Glucosamine-1-phosphate acetyl transferase (GlmU). Secondary screen.; design: species or system Mycobacterium tuberculosis H37Rv
# Chain of Bifunctional protein GlmU (P9WMN3 whole entry): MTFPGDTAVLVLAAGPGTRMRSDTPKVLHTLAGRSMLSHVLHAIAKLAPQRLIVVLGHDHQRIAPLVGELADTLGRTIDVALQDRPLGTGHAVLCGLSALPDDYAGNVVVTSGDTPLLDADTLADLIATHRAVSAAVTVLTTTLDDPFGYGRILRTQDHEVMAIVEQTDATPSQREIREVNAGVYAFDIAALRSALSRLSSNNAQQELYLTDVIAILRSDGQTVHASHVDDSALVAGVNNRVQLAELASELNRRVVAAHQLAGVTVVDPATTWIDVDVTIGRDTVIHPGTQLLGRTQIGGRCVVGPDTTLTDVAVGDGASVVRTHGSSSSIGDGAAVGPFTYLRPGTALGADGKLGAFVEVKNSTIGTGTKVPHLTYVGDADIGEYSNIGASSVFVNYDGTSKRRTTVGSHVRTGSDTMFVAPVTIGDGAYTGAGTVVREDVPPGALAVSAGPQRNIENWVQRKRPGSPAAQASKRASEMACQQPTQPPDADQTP
# [16] = Trypanosoma cruzi growth suppression in host cells – NIH3T3 host cells, beta-gal luminescence, confirmation (AID 2044); type: functional, cell-based;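 also: intracellular parasites grown in NIH/3T3 mouse fibroblasts as host cells; luminescent beta-galactosidase reporter signal from transgenic T. cruzi replicating inside host cells; inhibitors lower the luminescence signal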
# [17] = NIH3T3 cell viability loss – ATP luminescence, mouse fibroblasts, counter-screen, dose response (AID 2010); type: functional, cell-based;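 also: cells exposed to compound for about 90 hours before reading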
# [18] = cells
# [19] = target: E3 ubiquitin-protein ligase Mdm2 (Homo sapiens, UniProt Q00987); test: MDM2-luc reporter signal enhancers, multi-concentration potency testing, MDM2 ubiquitin-protein ligase inhibitor program, whole-cell format, luminescence detection, 384-well microplate (AID 1394); type: functional;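 also: MDM2 E3 inhibitors raise luminescence so EC50 is for signal enhancement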
# Chain of E3 ubiquitin-protein ligase Mdm2 (Q00987 whole entry): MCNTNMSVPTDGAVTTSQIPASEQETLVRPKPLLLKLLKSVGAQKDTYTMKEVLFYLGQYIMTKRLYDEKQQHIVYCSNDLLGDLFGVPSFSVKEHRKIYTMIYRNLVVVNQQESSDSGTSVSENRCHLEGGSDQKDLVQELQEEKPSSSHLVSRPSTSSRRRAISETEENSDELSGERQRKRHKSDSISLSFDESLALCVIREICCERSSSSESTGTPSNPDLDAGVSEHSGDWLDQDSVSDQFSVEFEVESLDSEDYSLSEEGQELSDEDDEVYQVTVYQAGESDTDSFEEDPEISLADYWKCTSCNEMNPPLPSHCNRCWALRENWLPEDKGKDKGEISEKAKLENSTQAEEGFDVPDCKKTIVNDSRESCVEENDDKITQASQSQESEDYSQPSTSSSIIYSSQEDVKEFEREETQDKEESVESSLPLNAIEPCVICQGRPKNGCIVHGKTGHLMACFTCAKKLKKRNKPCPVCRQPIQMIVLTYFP
smiles,measurement,setting,value
Cc1cc(C)c(C(=O)Nc2ccc(Br)c(C(F)(F)F)c2)c(C)c1,EC50,[1],3.73 µM (active)
same,CC50,[2],47.4 µM (active)
same,EC50,[3],2.41 µM (active)
same,EC50,[4],3.29 µM (active)
O=C1C(Cl)=C(N2CCOCC2)C(=O)N1c1cccc(Cl)c1,EC50,[5],1.46 µM (active)
same,IC50,[6],13.6 µM (active)
same,IC50,[7],8.47 µM (active)
same,AC50,[8],4.14 µM (active)
same,IC50,[9],6.37 µM (active)
same,IC50,[10],> 10 µM (inconclusive)
O=C(NCc1nc2ccccc2[nH]1)C1=C[C@@H](c2ccc(Br)cc2)C[C@@H](OCc2ccc(CO)cc2)O1,IC50,[11],0.498 µM (active)
same,IC50,[12],33.7 µM (inactive)
same,IC50,[13],66.6 µM (inactive)
same,IC50,[14],1.33 µM (active)
O=C1C(Cl)=C(Nc2ccccc2O)C(=O)N1CCc1ccccc1,IC50,[15],85.3 µM (active)
Cc1ccccc1OCCNc1cc(N2CCN(CCO)CC2)ccc1[N+](=O)[O-],CC50,[2],19.4 µM (active)
COc1cccc(CNC(=O)CCC2CCCN(C/C=C/c3ccccc3OC)C2)c1 (stereo not given),EC50,[16],< 0.1 µM (active)
same,EC50,[17],> 60 µM (not active)
same,EC50,[18],0.05 µM (active)
OC(c1nnc(-c2ccccc2)o1)c1cccs1 (stereo not given),EC50,[19],441 µM (not active)
